{"source": "paper PMC11452728", "about": "“Pharmacokinetics of pulmonary indacaterol in rat lung using molecular imprinting solid-phase extraction coupled with RP-UPLC” (Scientific Reports, 2024)", "key": {"[1]": {"assay": "Pharmacokinetic study of indacaterol in rat lung tissues (MISPE, UPLC)", "format": "in vivo, male Wistar rats", "conditions": "rat lungs", "method": "AUC was calculated using the trapezoidal rule where, AUC 0−t was determined by summing the areas of consecutive trapezoids formed by plotting drug concentration versus time[36]. The elimination rate constant was estimated from the least-squares regression slope of the terminal lung concentrations by multiplying the negative slope by 2.303[36]. The AUC 0−inf was calculated using Eq. (9)[36]:9 [drawing 9]\nwhere, Ct is the last lung concentration measured. The t1/2 was calculated using Eq. (10)[36]:10 [drawing 10]\nThe rats were divided into eight sampling time points (n = 3/sampling time point) representing different time intervals (0.0, 5.0, 15.0, 30.0, 60.0, 180.0, 360.0 and 1440.0 min) for the pharmacokinetic study. Except for the zero-time sampling point; where rats were not administered the drug and were used for bioanalytical validation; each rat in each sampling time point was administered one inhalation capsule containing 150 µg of indacaterol using a powder administration device for animals (Aptar Pharma, Le Prieure, Le Neubourg, France). The powder administration device was designed to deliver a uniform dose of dry powder inhalers into the lungs of rats.\nAt each time interval, three rats were subjected to euthanasia in the euthanasia chamber using carbon dioxide gas inhalation, after being unconscious, the rats were subjected to decapitation and their lungs were separated and cut into small slices to facilitate homogenization. Then, the lung tissues were homogenized for 10 min using a homogenizer placed in an ice jacket with 2.0 mL of PBS. The homogenized samples were then centrifuged, and the supernatant was separated and loaded into MISPE cartridge following the optimized MISPE steps. The drug was eluted in 1.0 mL of the eluent. Then, 10.0 µL of salbutamol stock solution was added to the eluent as an IS, and the eluent was then injected into UPLC. The same procedure was repeated at each time interval. Dead animal bodies were kept in biohazard bags in -20^ºC freezer and finally incinerated by specialized waste disposal companies."}, "[2]": {"assay": "Stability of lung samples spiked with indacaterol standard", "format": "physicochemical, rat", "conditions": "for Short-term stability, % deviation from fresh sample: room temperature 2 h, lung sample; for Long-term stability, % deviation from fresh sample: -80 °C 3 weeks; for Auto-sampler stability, % deviation from fresh sample: autosampler 30°C 6 h; for Freeze and thaw stability, % deviation from fresh sample: three cycles each of 24 h", "method": "Regarding the preparation of lung tissue samples, three non-medicated male rats were sacrificed by decapitation and their whole lungs were harvested. The lungs were cut into small slices and mixed with 2.0 mL of PBS, homogenized in an ice jacket for 10.0 min. Subsequently, 1800.0 µL of the homogenate was collected and spiked with 200.0 µL of indacaterol solution with concentrations of 1.0, 3.0, 350.0, and 700.0 µg mL^− 1 separately, to achieve the concentration of the LLOQ and QCs per 1.0 mL of the lung homogenate. Samples were centrifuged at 3000 rpm for 10 min and 1.0 mL of the supernatant was passed through the MISPE cartridge according to the extraction protocol outlined in section \"Preparation and optimization of MISPE\". Finally, 10.0 µL of salbutamol stock standard solution was added to the eluent as IS, and the samples were injected into the UPLC for analysis.\nSamples stabilities were assessed by injecting LLOQ and QCs six times and compared to freshly prepared samples using the following stability conditions:\nSamples were left at room temperature for a time exceeding that required for sample preparation (2 h).\nSamples were left in autosampler (30°C) for 6 h; expected time of samples storage in autosampler before injection. Then, samples were injected.\nSamples were subjected to three cycles of freeze and thaw each of 24 h and the samples were kept under the same conditions as during the analysis.\nSamples were stored at -80^ºC over a period exceeding that required for the whole experiment (3 weeks).\nThe results of all stability conditions were evaluated using Eq. (2). The deviation should not exceed ± 15.0%.2 [drawing 2]"}, "[3]": {"assay": "Solubility of indacaterol in solvents (porogen and washing solvent choice)", "format": "physicochemical"}, "[4]": {"design": "method as in PMID 24295085", "conditions": "human lung and pulmonary microsomes; cited from earlier work"}, "[5]": {"conditions": "cited from earlier work"}, "[6]": {"design": "method as in PMID 19819331", "conditions": "cited from earlier work"}, "[7]": {"conditions": "male, Wistar, lung, inhaled or intranasal, 150 ug, single inhaled capsule 150 µg, mean ± SD"}}, "data": [{"smiles": "CCc1cc2c(cc1CC)CC(NC[C@H](O)c1ccc(O)c3[nH]c(=O)ccc13)C2", "note": "[indacaterol, 5-[(1R)-2-(5,6-diethyl-indan-2-ylamino)-1-hydroxy-ethyl]−8-hydroxy-1H-quinolin-2-one]", "values": [{"measurement": "Cmax", "setting": "[1]; male, Wistar, lung, inhaled or intranasal, 150 ug, single inhaled Onbrez Breezhaler capsule 150 µg indacaterol, n = 3 per sampling time point, mean ± SD", "value": "51 ± 2.81", "unit": "µg/mL"}, {"measurement": "AUC(0-inf)", "setting": "[1]; [7]", "value": "542 ± 5.25", "unit": "µg·h/mL"}, {"measurement": "Tmax", "setting": "[1]; [7]", "value": "4.98 ± 0.06", "unit": "min"}, {"measurement": "half-life", "setting": "[1]; male, Wistar, lung, inhaled or intranasal, 150 ug, single inhaled capsule 150 µg, mean ± SD, read-out: t1/2 (0–24) (converted)", "value": "48.51 ± 0.012", "unit": "h"}, {"measurement": "AUC(0-t)", "setting": "[1]; male, Wistar, lung, inhaled or intranasal, 150 ug, zero to 24 h, single inhaled capsule 150 µg, mean ± SD", "value": "175.9 ± 1.05", "unit": "µg·h/mL"}, {"measurement": "onset of lung deposition", "setting": "[1]; single inhaled capsule 150 µg", "value": 5, "unit": "min"}, {"measurement": "Elimination rate constant", "setting": "[1]; single inhaled capsule 150 µg, mean ± SD", "value": "0.014 ± 0.00012", "unit": "h^− 1"}, {"measurement": "Short-term stability, % deviation from fresh sample", "setting": "[2]; LLOQ 0.10 µg mL^-1", "value": "-11.30±3.50", "unit": "%"}, {"measurement": "Long-term stability, % deviation from fresh sample", "setting": "[2]; LLOQ", "value": "-13.10±5.89", "unit": "%"}, {"measurement": "Auto-sampler stability, % deviation from fresh sample", "setting": "[2]; LLOQ", "value": "-12.05±4.20", "unit": "%"}, {"measurement": "Freeze and thaw stability, % deviation from fresh sample", "setting": "[2]; LLOQ", "value": "-13.26±4.85", "unit": "%"}, {"measurement": "Short-term stability, % deviation from fresh sample", "setting": "[2]; QCH 70.0 µg mL^-1", "value": "-2.89±1.94", "unit": "%"}, {"measurement": "Long-term stability, % deviation from fresh sample", "setting": "[2]; QCH", "value": "-3.28±1.32", "unit": "%"}, {"measurement": "Auto-sampler stability, % deviation from fresh sample", "setting": "[2]; QCH", "value": "-1.71±2.67", "unit": "%"}, {"measurement": "Freeze and thaw stability, % deviation from fresh sample", "setting": "[2]; QCH", "value": "-2.20±2.25", "unit": "%"}, {"measurement": "Short-term stability, % deviation from fresh sample", "setting": "[2]; QCL 0.30 µg mL^-1", "value": "-5.74±2.25", "unit": "%"}, {"measurement": "Long-term stability, % deviation from fresh sample", "setting": "[2]; QCL", "value": "-4.40±3.88", "unit": "%"}, {"measurement": "Auto-sampler stability, % deviation from fresh sample", "setting": "[2]; QCL", "value": "-5.98±2.58", "unit": "%"}, {"measurement": "Freeze and thaw stability, % deviation from fresh sample", "setting": "[2]; QCL", "value": "-4.80±3.26", "unit": "%"}, {"measurement": "Short-term stability, % deviation from fresh sample", "setting": "[2]; QCM 35.0 µg mL^-1", "value": "-4.14±2.61", "unit": "%"}, {"measurement": "Long-term stability, % deviation from fresh sample", "setting": "[2]; QCM", "value": "-3.90±2.22", "unit": "%"}, {"measurement": "Auto-sampler stability, % deviation from fresh sample", "setting": "[2]; QCM", "value": "-4.02±2.34", "unit": "%"}, {"measurement": "Freeze and thaw stability, % deviation from fresh sample", "setting": "[2]; QCM", "value": "-4.30±2.81", "unit": "%"}, {"measurement": "solubility in acetonitrile and chloroform", "setting": "[3]; tested as porogen", "value": "insolubility"}, {"measurement": "solubility in methanol", "setting": "[3]; washing solvent discussion", "value": "high"}, {"measurement": "metabolism by UGT1A1 and CYP3A4 in the lung", "setting": "[4]", "value": "did not detect any apparent metabolism"}, {"measurement": "time to enter the bloodstream after inhalation", "setting": "[5]; after being inhaled", "value": "≤ 5", "unit": "min"}, {"measurement": "time to highest blood concentration", "setting": "[5]; after entering the bloodstream, at very low doses", "value": "approximately 15 min"}, {"measurement": "absolute bioavailability", "setting": "[5]; inhaled", "value": 45, "unit": "%"}, {"measurement": "fraction of systemically available indacaterol due to pulmonary absorption (Flung)", "setting": "[5]; inhaled", "value": 74, "unit": "%"}, {"measurement": "time to steady state", "setting": "[5]; once-daily inhalation", "value": 12, "unit": "days"}, {"measurement": "lipophilicity", "setting": "[6]", "value": "high"}, {"measurement": "binding affinity for raft micro-domains compared to other β2 agonists", "setting": "[6]; plasma membrane of airway smooth muscle", "value": "two-fold higher"}]}]}
